Laboratory results published in ChEMBL document CHEMBL1156359, “New cytotoxic sesterterpenes from the sponge Sarcotragus species” (2001).
In brackets after ≈: the same amount, converted by molar mass.

Legend:
Assay type in all cases: functional
Settings in all cases: read-out: ED50 (the source's name)
HCT-15 = assay: Cytotoxicity against human HCT15 cells
SK-OV-3 = assay: Cytotoxicity against human SKOV3 cells
XF498 = assay: Cytotoxicity against human XF498 cells
SK-MEL-2 = assay: Cytotoxicity against human SK-MEL-2 cells
A549 = assay: Cytotoxicity against human A549 cells

CC1=C(O)[C@@H](C/C(C)=C\CC/C(C)=C/CC/C(C)=C/CCc2ccoc2)OC1=O
EC50 (HCT-15): 27.5 µg/mL (≈ 69 µM) | EC50 (SK-OV-3): 26.8 µg/mL (≈ 67.3 µM) | EC50 (XF498): 20.4 µg/mL (≈ 51.2 µM) | EC50 (SK-MEL-2): 16.3 µg/mL (≈ 40.9 µM) | EC50 (A549): 16.9 µg/mL (≈ 42.4 µM)

COc1cccc2c1C(=O)c1c(O)c3c(c(O)c1C2=O)C[C@@](O)(C(=O)CO)C[C@@H]3O[C@H]1C[C@H](N)[C@H](O)[C@H](C)O1 [DOXORUBICIN]
EC50 (HCT-15): 0.04 µg/mL (≈ 0.0736 µM) | EC50 (SK-OV-3): 0.11 µg/mL (≈ 0.202 µM) | EC50 (XF498): 0.08 µg/mL (≈ 0.147 µM) | EC50 (SK-MEL-2): 0.02 µg/mL (≈ 0.0368 µM) | EC50 (A549): 0.02 µg/mL (≈ 0.0368 µM)

CC1=C(O)/C(=C/[C@H](C)CCC/C(C)=C/CCc2coc(Cc3ccoc3)c2)OC1=O [IRCININ 1]
EC50 (HCT-15): 6.91 µg/mL (≈ 16.8 µM) | EC50 (SK-OV-3): 6.55 µg/mL (≈ 16 µM) | EC50 (XF498): 5.42 µg/mL (≈ 13.2 µM) | EC50 (SK-MEL-2): 8.95 µg/mL (≈ 21.8 µM) | EC50 (A549): 3.72 µg/mL (≈ 9.06 µM)

CC1=C(O)/C(=C/[C@H](C)CC/C=C(/C)CCCc2coc(Cc3ccoc3)c2)OC1=O [IRCININ 2]
EC50 (HCT-15): 4.74 µg/mL (≈ 11.5 µM) | EC50 (SK-OV-3): 5.9 µg/mL (≈ 14.4 µM) | EC50 (XF498): 3.7 µg/mL (≈ 9.01 µM) | EC50 (SK-MEL-2): 5.87 µg/mL (≈ 14.3 µM) | EC50 (A549): 3.8 µg/mL (≈ 9.26 µM)

CC1=C(O)[C@@H](C/C(C)=C\CCC(C)/C=C/C=C(\C)CCCc2ccoc2)OC1=O (stereo not given in full) [SARCOTIN A]
EC50 (HCT-15): 27.2 µg/mL (≈ 68.2 µM) | EC50 (SK-OV-3): 22.1 µg/mL (≈ 55.4 µM) | EC50 (XF498): 24.8 µg/mL (≈ 62.3 µM) | EC50 (SK-MEL-2): > 30 µg/mL | EC50 (A549): 29.7 µg/mL (≈ 74.5 µM)

CC1=C(O)[C@H](C/C(C)=C\CCC(C)/C=C\C=C(\C)CCCc2ccoc2)OC1=O (stereo not given in full) [SARCOTIN B]
EC50 (HCT-15): 8.95 µg/mL (≈ 22.5 µM) | EC50 (SK-OV-3): 11.3 µg/mL (≈ 28.4 µM) | EC50 (XF498): 8.89 µg/mL (≈ 22.3 µM) | EC50 (SK-MEL-2): 7.78 µg/mL (≈ 19.5 µM) | EC50 (A549): 10.1 µg/mL (≈ 25.3 µM)

CC1=C(O)/C(=C\[C@H](C)CCC/C(C)=C/CCc2coc(Cc3ccoc3)c2)OC1=O [SARCOTIN D]
EC50 (HCT-15): 9.82 µg/mL (≈ 23.9 µM) | EC50 (SK-OV-3): 9.39 µg/mL (≈ 22.9 µM) | EC50 (XF498): 6.52 µg/mL (≈ 15.9 µM) | EC50 (SK-MEL-2): 10.2 µg/mL (≈ 24.8 µM) | EC50 (A549): 4.98 µg/mL (≈ 12.1 µM)

CC1=C(O)/C(=C\[C@H](C)CC/C=C(/C)CCCc2coc(Cc3ccoc3)c2)OC1=O [SARCOTIN E]
EC50 (HCT-15): 7.31 µg/mL (≈ 17.8 µM) | EC50 (SK-OV-3): 6.24 µg/mL (≈ 15.2 µM) | EC50 (XF498): 5 µg/mL (≈ 12.2 µM) | EC50 (SK-MEL-2): 8.37 µg/mL (≈ 20.4 µM) | EC50 (A549): 3.8 µg/mL (≈ 9.26 µM)
